Assay results taken from PMC7037052, “Predicting the Blood-Brain Barrier Permeability of New Drug-Like Compounds via HPLC with Various Stationary Phases” (Molecules, 2020).
Values belong to the compound of their own block, whether it stands above or below them.

Assays:
Format in all cases: physicochemical
[1] = RP-HPLC retention on Purosphere RP-18e (ODS) column, buffer pH 7.4-acetonitrile; details: for log kw, ODS: extrapolated to buffer pH 7.4 as mobile phase, 25 °C; for s ODS: slope of Soczewiński-Wachtmeister equation, acetonitrile φ 0.3–0.6
Protocol: (§1) Retention parameters reported as the log k values were calculated by the expression:(1) logk=log(tR−t0)/t0 where tR and t0 are the retention times of the solute and a non-retained compound (citric acid), respectively. They were used to calculate the log kw values, i.e., logarithms of retention parameter in the buffer as the mobile phase. For this purpose the Soczewiński-Wachtmeister’s equation was used:log k = log kw − sφ(2) where φ is the volume fraction of organic modifier in the mobile phase; k and kw are retention parameters corresponding to mixed effluent and buffer as the mobile phase, respectively. The slope s is characteristic of a given solute and chromatographic system. Strong linear relationships between log k and φ values were found for all the compounds in the range of effluent composition examined (R^2 > 0.9). The log kw values determined for the ODS (log kw, ODS), IAM (log kw, IAM) and Cholester (log kw, Cholester) columns were intercorrelated and the following linear relationships with a very good statistical quality were obtained:log kw, ODS = 0.691(± 0.094) + 0.982(± 0.044) log kw, IAM(3) SD = 0.257; R^2 = 0.8880; N = 65 log kw, ODS = 0.911(± 0.062) + 0.765(± 0.025) log kw, Cholester(4) SD = 0.192; R^2 = 0.9371; N = 65 log kw, IAM = 0.356(± 0.073) + 0.721(± 0.029) log kw, Cholester(5) SD = 0.224; R^2 = 0.9068; N = 65
(§2) Shimadzu Vp (Shimadzu, Izabelin, Poland) liquid chromatographic system equipped with LC 10AT pump, SPD 10A UV-Vis detector, SCL 10A system controller, CTO-10 AS chromatographic oven and Rheodyne injector valve with a 20 µL loop was applied in HPLC measurements. Three stationary phases were employed: • Purosphere RP-18e (ODS), 125 × 4 mm i.d., 5 µm (Merck); • IAM.PC.DD2 100 × 4.6 mm i.d., 10 µm (Regis Chemicals Company, Morton Grove, IL, USA); • Cosmosil Cholester, 75 × 2 mm i.d., 2.5 µm (Genore, Warsaw, Poland).
(§3) As mobile phases buffer-acetonitrile mixtures were used. The buffer was prepared from 0.01 mol L^−1 solutions of Na2HPO4 and citric acid and the pH 7.4 value was fixed before mixing with organic modifier. With the ODS column acetonitrile concentration in the effluent, expressed as a volume fraction (φ, v/v), was changed in the range 0.3–0.6, with the constant step of 0.1. The flow rate was 1 mL min^−1. With the IAM column acetonitrile concentration was changed in the range 0.2–0.5, also with the constant step of 0.1 and the flow rate was 1.3 mL min^−1. With the Cosmosil Cholester column acetonitrile concentration was changed in the range 0.4–0.6, with the constant step of 0.05 and the flow rate was 0.4 mL min^−1. Samples of test compounds were dissolved in acetonitrile—c.a. 0.005 mg mL^−1. […] They were detected under UV light at 210 and 254 nm. All measurements were carried out at 25 °C. The dead time values were measured from non-retained compound (citric acid) peaks. All reported log kw values are the average of at least three independent measurements. The extrapolated retention coefficients (logs kw) achieved by HPLC on ODS, IAM and Cholester stationary phases were used for modelling the log BB permeation of 65 drug-like compounds employed as a whole test set (Table 1).

[2] = RP-HPLC retention on IAM.PC.DD2 (immobilized artificial membrane) column, buffer pH 7.4-acetonitrile; details: for log kw, IAM: extrapolated to buffer pH 7.4 as mobile phase, 25 °C; for s IAM: slope of Soczewiński-Wachtmeister equation, acetonitrile φ 0.2–0.5
Protocol: as §1, §2, §3

[3] = RP-HPLC retention on Cosmosil Cholester column, buffer pH 7.4-acetonitrile; details: for log kw, Cholester: extrapolated to buffer pH 7.4 as mobile phase, 25 °C; for s Cholester: slope of Soczewiński-Wachtmeister equation, acetonitrile φ 0.4–0.6
Protocol: as §1, §2, §3

log kw, ODS [1]: 3.55
s ODS [1]: 5.65
log kw, IAM [2]: 3.22
s IAM [2]: 6.32
log kw, Cholester [3]: 3.74
s Cholester [3]: 5.62
SMILES: O=c1c(Cc2ccccc2Cl)nnc2n1CCN2c1ccc(Cl)cc1 [Compound 58]

log kw, ODS [1]: 3.09
s ODS [1]: 5.24
log kw, IAM [2]: 2.59
s IAM [2]: 5.14
log kw, Cholester [3]: 3.09
s Cholester [3]: 5.06
SMILES: Cc1ccc(N2CCn3c2nnc(Cc2cccc(C)c2)c3=O)cc1 [Compound 47]

log kw, ODS [1]: 4.02
s ODS [1]: 6.45
log kw, IAM [2]: 3.17
s IAM [2]: 6.18
log kw, Cholester [3]: 3.68
s Cholester [3]: 5.82
SMILES: O=c1c(Cc2ccc(Cl)cc2)nnc2n1CCN2c1ccc(Cl)cc1 [Compound 60]

log kw, ODS [1]: 3.61
s ODS [1]: 5.85
log kw, IAM [2]: 3.15
s IAM [2]: 6.01
log kw, Cholester [3]: 3.67
s Cholester [3]: 5.75
SMILES: O=c1c(Cc2cccc(Cl)c2)nnc2n1CCN2c1ccc(Cl)cc1 [Compound 59]

log kw, ODS [1]: 3.04
s ODS [1]: 5.30
log kw, IAM [2]: 2.51
s IAM [2]: 5.22
log kw, Cholester [3]: 3.15
s Cholester [3]: 5.05
SMILES: Cc1ccc(Cc2nnc3n(c2=O)CCN3c2ccc(C)cc2)cc1 [Compound 46]

log kw, ODS [1]: 3.59
s ODS [1]: 5.85
log kw, IAM [2]: 2.48
s IAM [2]: 5.18
log kw, Cholester [3]: 2.90
s Cholester [3]: 4.80
SMILES: O=c1c(Cc2cccc(Cl)c2)nnc2n1CCN2c1ccccc1 [Compound 43]

log kw, ODS [1]: 3.31
s ODS [1]: 5.41
log kw, IAM [2]: 2.78
s IAM [2]: 5.50
log kw, Cholester [3]: 3.40
s Cholester [3]: 5.33
SMILES: Cc1ccc(N2CCn3c2nnc(Cc2cccc(Cl)c2)c3=O)cc1 [Compound 49]

log kw, ODS [1]: 3.35
s ODS [1]: 5.55
log kw, IAM [2]: 2.15
s IAM [2]: 4.69
log kw, Cholester [3]: 2.74
s Cholester [3]: 4.59
SMILES: Cc1ccc(N2CCn3c2nnc(Cc2ccccc2)c3=O)cc1 [Compound 45]

log kw, ODS [1]: 3.14
s ODS [1]: 5.36
log kw, IAM [2]: 2.43
s IAM [2]: 5.02
log kw, Cholester [3]: 3.07
s Cholester [3]: 5.02
SMILES: CCOc1ccc(N2CCn3c2nnc(Cc2ccc(C)cc2)c3=O)cc1 [Compound 52]

Further lines, the compound ahead of its results:

SMILES: O=c1c(-c2ccco2)nnc2n1CCN2c1ccc(Cl)c(Cl)c1 [Compound 27]
log kw, ODS [1]: 3.46
s ODS [1]: 5.68
log kw, IAM [2]: 3.23
s IAM [2]: 6.30
log kw, Cholester [3]: 2.92
s Cholester [3]: 4.85

SMILES: O=c1c(Cc2ccccc2)nnc2n1CCN2c1ccccc1 [Compound 41]
log kw, ODS [1]: 2.90
s ODS [1]: 5.02
log kw, IAM [2]: 3.26
s IAM [2]: 6.45
log kw, Cholester [3]: 2.23
s Cholester [3]: 3.75

SMILES: Cc1cccc(N2CCn3c2nnc(-c2ccccc2)c3=O)c1C [Compound 36]
log kw, ODS [1]: 2.74
s ODS [1]: 4.85
log kw, IAM [2]: 1.85
s IAM [2]: 4.05
log kw, Cholester [3]: 2.34
s Cholester [3]: 3.60

SMILES: CCOC(=O)Cc1nnc2n(c1=O)CCN2c1ccc(OC)cc1 [Compound 14]
log kw, ODS [1]: 1.37
s ODS [1]: 3.15
log kw, IAM [2]: 0.91
s IAM [2]: 2.58
log kw, Cholester [3]: 0.65
s Cholester [3]: 1.92

SMILES: O=c1c(-c2ccccc2)nnc2n1CCN2c1ccc(Cl)c(Cl)c1 [Compound 40]
log kw, ODS [1]: 3.48
s ODS [1]: 5.90
log kw, IAM [2]: 3.26
s IAM [2]: 6.40
log kw, Cholester [3]: 3.86
s Cholester [3]: 6.02

SMILES: O=c1c(-c2ccccc2)nnc2n1CCN2c1ccccc1Cl [Compound 37]
log kw, ODS [1]: 2.43
s ODS [1]: 4.60
log kw, IAM [2]: 1.73
s IAM [2]: 3.84
log kw, Cholester [3]: 1.96
s Cholester [3]: 3.65

SMILES: O=c1c(-c2ccccc2)nnc2n1CCN2c1cccc(Cl)c1 [Compound 38]
log kw, ODS [1]: 3.29
s ODS [1]: 5.70
log kw, IAM [2]: 2.64
s IAM [2]: 5.41
log kw, Cholester [3]: 3.20
s Cholester [3]: 5.20

SMILES: Cc1ccccc1N1CCn2c1nnc(-c1ccccc1)c2=O [Compound 30]
log kw, ODS [1]: 2.12
s ODS [1]: 4.01
log kw, IAM [2]: 1.53
s IAM [2]: 3.52
log kw, Cholester [3]: 1.88
s Cholester [3]: 3.50

SMILES: O=c1c(-c2ccco2)nnc2n1CCN2c1ccccc1 [Compound 18]
log kw, ODS [1]: 2.12
s ODS [1]: 4.06
log kw, IAM [2]: 1.29
s IAM [2]: 3.23
log kw, Cholester [3]: 1.43
s Cholester [3]: 3.12

SMILES: Cc1ccc(N2CCn3c2nnc(-c2ccccc2)c3=O)cc1 [Compound 32]
log kw, ODS [1]: 2.93
s ODS [1]: 5.06
log kw, IAM [2]: 2.22
s IAM [2]: 4.81
log kw, Cholester [3]: 2.86
s Cholester [3]: 4.65

SMILES: COC(=O)Cc1nnc2n(c1=O)CCN2c1ccc(Cl)cc1 [Compound 11]
log kw, ODS [1]: 2.36
s ODS [1]: 4.44
log kw, IAM [2]: 1.82
s IAM [2]: 4.39
log kw, Cholester [3]: 1.82
s Cholester [3]: 3.55

SMILES: COc1ccccc1N1CCn2c1nnc(-c1ccccc1)c2=O [Compound 33]
log kw, ODS [1]: 1.98
s ODS [1]: 3.99
log kw, IAM [2]: 1.47
s IAM [2]: 3.62
log kw, Cholester [3]: 1.69
s Cholester [3]: 2.94

SMILES: CCc1nnc2n(c1=O)CCN2c1ccccc1Cl [Compound 3]
log kw, ODS [1]: 1.22
s ODS [1]: 3.02
log kw, IAM [2]: 0.80
s IAM [2]: 2.51
log kw, Cholester [3]: 0.46
s Cholester [3]: 1.70
